For data set [1], the target named is human TRPA1 (Homo sapiens, UniProt O75762). The experiment in a line: Inhibition of the TRPA1 ion channel, whole cell patch configuration (Example 1). The conditions noted are these: current activation 10 µM AITC, read-out: Human TRPA1 IC50 Inward Current. Type of data set: cell-based. On the procedure: Compounds of Formula (Ia) inhibit the TRPA1 channel, as measured using the method of Example 1. […] Data for TRPA1 inhibition and for TRPA1 selectivity was obtained by this method for the indicated compounds of Formula (Ia), with the relevant data included in Tables 1a - f below. All currents were recorded in whole-cell configuration using EPC-9 and EPC-10 amplifiers and Patchmaster software (HEKA). […] The standard pipette solution consisted of 140mM CsAsp, 10 mM EGTA, 10 mM HEPES, 2.27 mM MgCl2, 1.91 mM CaCl2, 4 mM MgATP, and 0.1-0.3 mM Na2GTP, with pH adjusted to 7.2 with CsOH. In addition, a solution containing 145 mM CsCl, 10 mM HEPES, 10 mM EGTA and 1 mM MgCl2 (pH 7.2 adjusted with CsOH) can be used. The standard bath solution contained 150 mM NaCl, 10 mM HEPES, 10 mM glucose, 4.5 mM KCl, 1 mM EGTA, 3 mM MgCl2, with pH adjusted to 7.4 with NaOH. In some instances, 2 mM CaCl2 was added in place of EGTA and the concentration of MgCl2 was reduced to 1 mM.
human TRPA1, sequence (O75762 whole entry): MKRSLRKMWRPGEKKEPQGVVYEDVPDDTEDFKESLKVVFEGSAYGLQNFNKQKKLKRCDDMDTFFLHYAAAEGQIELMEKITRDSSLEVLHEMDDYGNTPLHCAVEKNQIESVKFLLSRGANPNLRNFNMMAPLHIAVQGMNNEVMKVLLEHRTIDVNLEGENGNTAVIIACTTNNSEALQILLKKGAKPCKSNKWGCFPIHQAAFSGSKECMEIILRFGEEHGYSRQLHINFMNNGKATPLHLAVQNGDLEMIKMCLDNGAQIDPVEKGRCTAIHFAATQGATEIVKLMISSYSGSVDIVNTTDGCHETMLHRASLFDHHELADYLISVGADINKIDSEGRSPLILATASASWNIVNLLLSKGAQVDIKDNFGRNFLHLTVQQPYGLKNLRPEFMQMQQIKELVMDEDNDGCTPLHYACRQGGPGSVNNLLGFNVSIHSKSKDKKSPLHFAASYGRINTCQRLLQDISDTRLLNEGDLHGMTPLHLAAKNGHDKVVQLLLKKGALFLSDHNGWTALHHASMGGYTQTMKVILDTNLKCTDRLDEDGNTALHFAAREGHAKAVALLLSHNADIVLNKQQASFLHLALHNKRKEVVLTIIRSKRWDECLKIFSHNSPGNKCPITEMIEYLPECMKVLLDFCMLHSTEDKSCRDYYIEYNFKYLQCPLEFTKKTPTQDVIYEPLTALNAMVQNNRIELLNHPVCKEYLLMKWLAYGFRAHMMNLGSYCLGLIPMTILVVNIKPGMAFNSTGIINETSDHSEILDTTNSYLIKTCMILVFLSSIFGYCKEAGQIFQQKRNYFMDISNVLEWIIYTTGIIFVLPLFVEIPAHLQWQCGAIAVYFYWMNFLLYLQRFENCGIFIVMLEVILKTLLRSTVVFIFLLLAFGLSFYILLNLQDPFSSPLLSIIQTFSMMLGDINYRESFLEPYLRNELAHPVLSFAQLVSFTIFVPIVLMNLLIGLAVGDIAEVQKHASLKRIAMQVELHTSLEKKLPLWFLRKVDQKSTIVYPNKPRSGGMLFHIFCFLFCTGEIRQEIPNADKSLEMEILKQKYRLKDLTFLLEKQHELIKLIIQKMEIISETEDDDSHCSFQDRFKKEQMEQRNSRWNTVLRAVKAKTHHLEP
Data were collected either by continuous recordings at -60 mV or by applying voltage ramps from a holding potential of 0 mV every 4 s. Continuous recordings were collected at 400 Hz and digitally filtered off-line at 10 Hz for presentation. Voltage ramps were applied from - 100 mV to 100 mV over the course of 400 ms, and data were collected at 10 kHz and filtered at 2.9 kHz. Inward and outward currents were analyzed from the ramps at -80 and 80 mV, respectively. Liquid junction potential correction was not used.
Solutions were switched using a gravity-fed continuous focal perfusion system. To achieve rapid temperature changes, two temperature control, and perfusion systems were employed simultaneously. For temperatures ≥ 22°C, a Warner Instruments bipolar temperature controller (TC-344B) and inline heater (SHM-8) were used. […] Temperatures were confirmed using a thermistor (Warner Instruments, TA-29), with temperatures at the recorded cell estimated to be within +/- 2°C of those reported.
The antagonist effects of compounds of Formula (Ia) against human TRPA1 ("hTRPA1") and for some compounds rat TRPA1 ("rTRPA1") in a whole cell patch configuration were evaluated using the in vitro assay described above. The current activation tested was 10 µM AITC, and the tested concentrations ranged from 5 µM and 500 nM. Table 1a (Comparative Compounds)

A short description of data set [2]: Aqueous solubility in buffered solutions, HPLC (Example 2). Type of data set: physicochemical. The conditions noted are these: kinetic from dmso stock, ambient temperature.
The test system of data set [3] is rats. The experiment in a line: Rodent formalin pain model (Example 3). The conditions noted are these: rat; for Minimal Efficacious Dose of Compound in Formalin Model: IV, statistically significant difference vs vehicle at 0 - 2 min (p≤0.05); for Duration of Pain Behavior: first two minutes after formalin, vehicle 88.6. Type of data set: in vivo. On the procedure: Compounds of Formula (Ia) are active in rodent models of pain induced by direct activation of the TRPA1 channel with intraplantar injection of the TRPA1 agonist formalin. Compounds of Formula (Ia) were tested in the formalin-induced pain test reported by Abbott et. al. Pain. 1995 Jan;60(1):91-102. Dubuisson et al. describe a method for assessing pain and analgesia in rats. Briefly, dilute formalin (50 µL of 3 % formalin) is injected into the plantar surface of the hind paw. […] The individual responsible for counting the pain behaviors in a particular study is blinded to the treatment groups.
Table 2 is a data table showing the results from testing compounds of Formula (Ia) in the rodent formalin-induced pain model described in […]. Rats were treated with the compounds of Formula (Ia) at various doses (0.1, 0.3, 1, 1.2, 3, 4, 10, or 30 mg/Kg IV) or with a control composition containing the vehicle (i.e., without a compound of Formula (Ia)). Pain behaviors (flinch, lift, lick, bite) were monitored following intraplantar formalin injection. Referring to Table 2, the minimum effective dose was derived from dose resulting in statistically significant difference in behavior at 0 - 2 min time period as compared with vehicle (p≤0.05).

Where [4] appears, read: sodium bicarbonate buffer in water for injection/5% dextrose, pH 9.0, 50 mM sodium bicarbonate, read-out: pH 9.0 aqueous solubility.
[5] abbreviates: sodium phosphate buffer in water for injection/5% dextrose, pH 7.4, 75 mM sodium phosphate, read-out: pH 7.4 aqueous solubility.

The structures appear in SMILES notation. In brackets after ≈: the same amount, converted by molar mass. Like-named read-outs stand apart in the source and are kept apart here.

Results on 20 compounds are retold here after patent EP2945947B1, “INHIBITING THE TRANSIENT RECEPTOR POTENTIAL A1 ION CHANNEL” (Merck Sharp & Dohme Corp., priority 2013, dated 2014).

In the case of `C[C@H](C(=O)Nc1cncc(-c2cnc(N3CCC[C@@H]3C)nc2)n1)n1cnc2c1c(=O)n(C)c(=O)n2C` [Compound 3-L], in data set [1], the IC50 (in general, the concentration that inhibits the measured activity by half) is above 100 nM. As for `C[C@@H](C(=O)Nc1cncc(-c2cnc(N3CCCC3(C)C)nc2)n1)n1cnc2c1c(=O)n(C)c(=O)n2C` [Compound 2-F, (S)-2-(1,3-dimethyl-2,6-dioxo-1,2,3,6-tetrahydro-7H-purin-7-yl)-N-(6-(2-(2,2-dimethylpyrrolidin-1-yl)pyrimidin-5-yl)pyrazin-2-yl)propanamide], the solubility kinetic at 24 h in data set [2] (setting [4]) and in data set [2] (setting [5]) was 6 µg/mL (≈ 11.9 µM) each time. Besides, the “Minimal Efficacious Dose of Compound in Formalin Model” value (shortened to “Minimal Efficacious Dose of Compound”) in data set [3] was determined as 1 mg/kg. Also, the “Duration of Pain Behavior” value amounted to 67.5 s in data set [3] (dose 0.3 mg/kg IV), 7 s in data set [3] (dose 1 mg/kg IV) and 5 s in data set [3] (dose 3 mg/kg IV). Further, in data set [1], the IC50 was below 25 nM. As to `C[C@H]1CCCN1c1cncc(NC(=O)[C@H](C)N2C=NC3C2C(=O)N(C)C(=O)N3C)n1` (stereo partly shown) [Comparator 5, reference compound], the IC50 in data set [1] was above 100 nM. Take `CC(C)c1ccc(NC(=O)C(C)n2cnc3c2c(=O)n(C)c(=O)n3C)cc1` (stereo not shown) [Comparator 3, reference compound]: the IC50 in data set [1] was above 100 nM. For the compound `C[C@H]1CCCN1c1ccc(-c2csc(NC(=O)C(C)(C)n3cnc4c3c(=O)n(C)c(=O)n4C)n2)cc1F` [Comparator 4, reference compound], the IC50 in data set [1] was above 100 nM.

`C[C@@H](C(=O)Nc1cccc(-c2cnc(N3CCC[C@H]3C(F)(F)F)nc2)n1)n1cnc2c1c(=O)n(C)c(=O)n2C` [Compound 1-B, (S)-2-(1,3-Dimethyl-2,6-dioxo-1,2,3,6-tetrahydro-7H-purin-7-yl)-N-(6-(2-((S)-2-(trifluoromethyl)pyrrolidin-1-yl)pyrimidin-5-yl)pyridin-2-yl)propanamide]: the results for the solubility kinetic at 24 h in data set [2] (setting [4]) and in data set [2] (setting [5]) were 49 µg/mL (≈ 90.2 µM) and 44 µg/mL (≈ 81 µM), respectively. Further, the “Minimal Efficacious Dose of Compound” value in data set [3] is given as below 3 mg/kg. For the same compound, the “Duration of Pain Behavior” value was 6.1 s in data set [3] (dose 3 mg/kg IV) and 0.3 s in data set [3] (dose 10 mg/kg IV). The IC50 in data set [1] was below 25 nM. Regarding `C[C@H]1CCCN1c1ncc(-c2cncc(NC(=O)[C@H](C)n3cnc4c3c(=O)n(C)c(=O)n4C)n2)cn1` [Compound 3-N, (S)-2-(1,3-dimethyl-2,6-dioxo-1,2,3,6-tetrahydro-7H-purin-7-yl)-N-(6-(2-((S)-2-methylpyrrolidin-1-yl)pyrimidin-5-yl)pyrazin-2-yl)propanamide], the IC50 in data set [1] is above 100 nM.

For `C[C@H]1CCCN1c1ncc(-c2cncc(NC(=O)[C@H](C)n3cnc4c3c(=O)n(C)c(=O)n4C)n2)cn1` [Compound 3-K, (S)-2-(1,3-dimethyl-2,6-dioxo-1,2,3,6-tetrahydro-7H-purin-7-yl)-N-(6-(2-((S)-2-methylpyrrolidin-1-yl)pyrimidin-5-yl)pyrazin-2-yl)propanamide], the solubility kinetic at 24 h came out at 48 µg/mL (≈ 97.9 µM) in data set [2] (setting [4]) and 38 µg/mL (≈ 77.5 µM) in data set [2] (setting [5]). For the same compound, the “Minimal Efficacious Dose of Compound” value in data set [3] is recorded as below 3 mg/kg. In addition, the entries for the “Duration of Pain Behavior” value in data set [3] (dose 3 mg/kg IV), in data set [3] (dose 10 mg/kg IV) and in data set [3] (dose 30 mg/kg IV) were 13.5 s, 2.6 s and 3.4 s, respectively. In addition, the IC50 in data set [1] was 25 to 75 nM. On to `C[C@H]1CCCN1c1ncc(-c2cccc(NC(=O)[C@H](C)n3cnc4c3c(=O)n(C)c(=O)n4C)n2)cn1` [Compound 4-P], for which, in data set [1], the IC50 was 25 to 75 nM.

As for `CC(C(=O)Nc1cccc(-c2cnc(N3CCC[C@H]3C(F)(F)F)nc2)n1)n1cnc2c1c(=O)n(C)c(=O)n2C` (stereo partly shown) [Compound 1-C], in data set [1], the IC50 was below 25 nM. In the case of `C[C@H](C(=O)Nc1cccc(-c2cnc(N3CCC[C@@H]3C)nc2)n1)n1cnc2c1c(=O)n(C)c(=O)n2C` [Compound 4-R], the IC50 in data set [1] is above 100 nM. The same measure, in the same setting: as for `C[C@H](C(=O)Nc1cccc(-c2cnc(N3CCC[C@H]3C(F)(F)F)nc2)n1)n1cnc2c1c(=O)n(C)c(=O)n2C` [Compound 1-D], the figure is above 100 nM; as for `[2H]C([2H])([2H])n1c(=O)n(C)c(=O)c2c1ncn2[C@@H](C)C(=O)Nc1cncc(-c2cnc(N3CCC[C@@H]3C)nc2)n1` [Compound 3-M], below 25 nM; as for `[2H]C([2H])([2H])n1c(=O)n(C)c(=O)c2c1ncn2[C@H](C)C(=O)Nc1cncc(-c2cnc(N3CCCC3(C)C)nc2)n1` [Compound 2-I], above 100 nM.

For `[2H]C([2H])([2H])n1c(=O)n(C)c(=O)c2c1ncn2[C@@H](C)C(=O)Nc1cncc(-c2cnc(N3CCCC3(C)C)nc2)n1` [Compound 2-H], the half-maximal inhibitory concentration (IC50) in data set [1] is below 25 nM.

As to `CC(C(=O)Nc1cncc(-c2cnc(N3CCC[C@H]3C(F)(F)F)nc2)n1)n1cnc2c1c(=O)n(C)c(=O)n2C` (stereo partly shown) [Compound 5-U], the half-inhibitory concentration (IC50) in data set [1] was below 25 nM.

Regarding `C[C@H](C(=O)Nc1cncc(-c2cnc(N3CCC[C@H]3C(F)(F)F)nc2)n1)n1cnc2c1c(=O)n(C)c(=O)n2C` [Compound 5-V], the IC50 in data set [1] was above 100 nM.

For the compound `C[C@H]1CCCN1c1cccc(NC(=O)[C@H](C)N2C=NC3C2C(=O)N(C)C(=O)N3C)n1` (stereo partly shown) [Comparator 6, reference compound], the IC50 in data set [1] was above 100 nM. On the same count and under the same terms, then `CC(C(=O)Nc1cccc(-c2cnc(N3CCC[C@@H]3C)nc2)n1)n1cnc2c1c(=O)n(C)c(=O)n2C` (stereo partly shown) [Compound 4-Q], with 25 to 75 nM; and `C[C@H](C(=O)Nc1cncc(-c2cnc(N3CCCC3(C)C)nc2)n1)n1cnc2c1c(=O)n(C)c(=O)n2C` [Compound 2-G], with above 100 nM.
